Values quoted from earlier work, collected in patent publication US20110086070A1, “Orally disintegrating compositions of rhein or diacerein” (priority 2008, published 2011).
Where a name gives a salt, the structure may show the parent alone.

How the values were obtained:
[1] = oral route

solubility in solvents (solvents such as water, alcohols, acetone, dichloromethane and chloroform)	absorption by the digestive tract [1]	solubility in water (water, disclosed in EP 243,968)	Compound
practically insoluble	cannot be completely absorbed	–	CC(=O)Oc1cccc2c1C(=O)c1c(OC(C)=O)cc(C(=O)O)cc1C2=O [Diacerein, 4,5-bis(acetyloxy)9,10-dihydro-4,5-dihydroxy-9,10-dioxo-2-anthracenecarboxylic acid]
–	–	water-soluble	CC(=O)Oc1cccc2c1C(=O)c1c(OC(C)=O)cc(C(=O)O)cc1C2=O [potassium salt of diacerein]
